Experimental findings from ChEMBL document CHEMBL1142818, “Identification of heteroarylenamines as a new class of antituberculosis lead molecules” (Bioorg Med Chem Lett, 2005) are described below.

Molecules are shown by their SMILES. In brackets after ≈: the same amount, converted by molar mass.

Assay [1] deals with Mycobacterium tuberculosis. Briefly: Minimum inhibitory concentration against Mycobacterium tuberculosis H37Rv pFPCA1 in green fluorescent protein microplate assay. In kind it is functional.
Assay [2] relates to Vero. Nature of the assay: Selectivity ratio for IC50 of VERO cells to that of MIC of Mycobacterium tuberculosis H37Rv. In kind it is functional, Chlorocebus sabaeus.
Assay [3] concerns Vero. Briefly: Inhibitory concentration required to produce cytotoxicity against VERO cells. Format: functional, cell-based. To be noted: Chlorocebus sabaeus.
Assay [4] concerns Mycobacterium tuberculosis. Briefly: Minimum inhibitory concentration against Mycobacterium tuberculosis H37Rv; Range 0.125-0.25 ug/mL. In kind it is functional.
Assay [5] has as its system Vero. Briefly: Selectivity ratio for IC50 of VERO cells to that of MIC of Mycobacterium tuberculosis H37Rv; d = Poor solubility prevented determination of activity. Format: functional, cell-based. To be noted: Chlorocebus sabaeus.
Assay [6] concerns Vero. Briefly: Inhibitory concentration required to produce cytotoxicity against VERO cells; d = Poor solubility prevented determination of activity. In kind it is functional, cell-based, Chlorocebus sabaeus.

By MIC is commonly meant the lowest concentration that inhibits growth of the organism. As a reminder, the IC50 is the concentration needed to halve the response being measured. A higher IC50 goes with lower potency. In assay [1], `CN(C)/C=C/c1c2c(nc3ccccc13)C(=O)c1cccnc1C2=O` came in with an MIC of 3.13 µg/mL (≈ 9.5 µM). Moreover, the Selectivity with Vero [2] is recorded as less than 0.08. The concentration for half-maximal inhibition (IC50) with Vero [3] was less than 0.26 µg/mL.
Turning to `CO[C@H]1/C=C/O[C@@]2(C)Oc3c(C)c(O)c4c(O)c(c(/C=N/N5CCN(C)CC5)c(O)c4c3C2=O)NC(=O)/C(C)=C\C=C\[C@H](C)[C@H](O)[C@@H](C)[C@@H](O)[C@@H](C)[C@H](OC(C)=O)[C@@H]1C` [RIFAMPIN], 0.25 µg/mL (≈ 0.304 µM) was the least that counted as inhibitory in assay [4] (MIC). Besides, the Selectivity with Vero [2] is reported as 400. In the assay with Vero [3], this compound came in with an IC50 of 100 µg/mL (≈ 122 µM).
`CC[C@@H](CO)NCCN[C@@H](CC)CO` [ETHAMBUTOL] showed an MIC in assay [1] of less than 0.2 µg/mL.
Regarding `Cc1c2c(nc3ccccc13)C(=O)c1cccnc1C2=O`, the MIC in assay [1] was 6.25 µg/mL (≈ 22.8 µM). The Selectivity entry in the assay on Vero [5] is reported as “Poor solubility”. In addition, the IC50 result in the assay on Vero [6] was “Poor solubility”.
`Cc1c2c(nc3ccccc13)C(=O)c1ccccc1C2=O` displayed an MIC in assay [1] of 1.56 µg/mL (≈ 5.71 µM). Further, the Selectivity entry in the assay on Vero [5] is recorded as “Poor solubility”. Moreover, the IC50 entry in the assay with Vero [6] is recorded as “Poor solubility”.
In assay [1], `NNC(=O)c1ccncc1` [ISONIAZID] showed an MIC of less than 0.2 µg/mL.
Turning to `O=C1c2cccnc2-c2nccc3c2c1nc1ccccc13` [ASCIDIDEMIN], the minimum inhibitory concentration (MIC) in assay [1] was found to be 0.1 µg/mL (≈ 0.353 µM). In addition, in the assay with Vero [2], the Selectivity is listed as less than 0.4. In addition, the IC50 in the assay with Vero [3] is less than 0.04 µg/mL.
Compound `O=C(O)c1cn(C2CC2)c2cc(N3CCNCC3)c(F)cc2c1=O` [CIPROFLOXACIN] gave a minimal inhibitory concentration (MIC) in assay [1] of less than 0.2 µg/mL.
Compound `C=C(C=O)c1c2c(nc3ccccc13)C(=O)c1ccccc1C2=O` registered an MIC in assay [1] of 0.2 µg/mL (≈ 0.638 µM). In the assay with Vero [5], the Selectivity entry is “Poor solubility”. Also, the IC50 entry with Vero [6] is “Poor solubility”.
As to `CN(C)CCc1c2c(nc3ccccc13)C(=O)c1ccccc1C2=O`, it took 0.78 µg/mL (≈ 2.36 µM) to inhibit growth in assay [1] (MIC). Besides, in the assay on Vero [2], the Selectivity was 4.5. Also, half-maximal inhibition in the assay on Vero [3] (IC50) required 3.5 µg/mL (≈ 10.6 µM).
As for `CN(C)CCc1c2c(nc3ccccc13)C(=O)c1cccnc1C2=O`, inhibition of growth in assay [1] (MIC) required 3.13 µg/mL (≈ 9.45 µM). The Selectivity in the assay on Vero [2] was determined as 0.45. In addition, the IC50 in the assay with Vero [3] came out at 1.4 µg/mL (≈ 4.22 µM).
In the case of `CN(C)/C=C/c1ccnc2c1C(=O)c1ccccc1C2=O`, in assay [1], it took 1.56 µg/mL (≈ 5.61 µM) to inhibit growth (MIC). In the assay on Vero [2], the Selectivity was 5.8. The compound further had an IC50 in the assay with Vero [3] of 9.1 µg/mL (≈ 32.7 µM).
In assay [1], `CN(C)/C=C/c1cccc2nc3ccccc3cc12` displayed a minimum inhibitory concentration (MIC) of 21 µg/mL (≈ 84.6 µM).
Same read-out and setting: the value for `NC[C@H]1O[C@H](O[C@H]2[C@H](O)[C@@H](O[C@H]3O[C@H](CO)[C@@H](O)[C@H](N)[C@H]3O)[C@H](N)C[C@@H]2N)[C@H](O)[C@@H](O)[C@@H]1O` [KANAMYCIN] was less than 0.2 µg/mL.
For `CN(C)/C=C/c1c2c(nc3ccccc13)C(=O)c1ccccc1C2=O`, the MIC in assay [1] worked out at 0.39 µg/mL (≈ 1.19 µM). The Selectivity with Vero [2] was found to be 15.1. The same compound showed an IC50 in the assay with Vero [3] of 5.9 µg/mL (≈ 18 µM).
